Source: patent US10472393B2, “Method for inhibiting ADAM proteases with cyclic peptides” (Cancer Research Technology Limited, priority 2007, dated 2019)
*1 amine or outer side, *2 acyl side, *3 side chain or, on linkers, in order; H or OH if unused. Where a SMILES comes first, the peptide text is derived from it. Where no end group is shown, it is not given here. [ ]: non-standard residue; d: D form. isoSer(2S) = O=C([C@@H](O)CN[*:1])[*:2]

Assays:
[1] = test system: mouse fibroblast (L929) cells overexpressing ADAM8; experiment: Matrigel invasion assay, L929 fibroblast cells overexpressing ADAM8; format: cell-based; conditions: FIG. 11; peptide 5 μM
Protocol: (§1) In this example, the ability of cyclic peptide to inhibit ADAM8 mediated tumour cell migration through an artificial extracellular matrix (Matrigel®) was measured in a cell invasion assay. Rat glioma C6 cells were stably transfected with full length ADAM8 cDNA [Schlomann et al, 2002]. Untransfected C6 glioma cells served as controls. 5×10^4 cells were suspended in 100 μl of culture medium in the absence or presence of peptides (100 nM) and loaded into Matrigel invasion chambers (BD Biosciences, Heidelberg, Germany), which were handled according to the supplier's manual. After 20 hours incubation time, invaded cells were fixed with methanol, stained with toluidine blue, and counted. Experiments were performed in triplets and from each well, 10 viewing fields were counted manually under the microscope. Differences between the values obtained were analysed using the Mann-Whitney U test.
(§2) ADAM8 was overexpressed by transfection in fibroblast (L929) and glioma (C6) cell lines which show no invasive potential under untransfected conditions. When ADAM8 expressing plasmids were transfected into these cell lines, the cells became highly invasive in Matrigel Invasion assays (e.g. as described in example 5). […] Invasion is also mediated by a soluble variant of ADAM8, which is released upon activation of ADAM8 in these cells.

ADAM8 DC domain = target: T1, ADAM8 DC domain (Mus musculus, UniProt Q05910); experiment: Adhesion of ADAM8-expressing cells to plates coated with recombinant ADAM8 DC domain; format: cell-based; conditions: FIG. 8; concentration used in the range of 10 nM
T1 construct: recombinant ADAM8 disintegrin/cysteine-rich (DC) domain; Myc (C); His6 (C); made in house; host or cells: E. coli strain TOP10
T1 sequence (Q05910 402-643 limits assumed): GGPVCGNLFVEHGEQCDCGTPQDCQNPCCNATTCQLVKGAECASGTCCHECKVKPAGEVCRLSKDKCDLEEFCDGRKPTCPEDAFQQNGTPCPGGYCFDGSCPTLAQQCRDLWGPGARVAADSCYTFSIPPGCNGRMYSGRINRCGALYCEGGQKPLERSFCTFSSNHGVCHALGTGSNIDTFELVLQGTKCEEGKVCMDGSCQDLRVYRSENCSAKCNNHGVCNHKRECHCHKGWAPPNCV
Protocol: In this example, peptides synthesised as described in example 1 were used to target cell adhesion mediated by the ADAM8 DC domain. A recombinant DC domain of ADAM8 was expressed and purified from E. coli and then coated onto cell culture plates. Cells over-expressing ADAM8 were then allowed to bind to the ADAM8 DC domain on the plates.
96-well plates were coated with 50 μg/ml of recombinant ADAM8 DC protein in PBS at 4° C. for 16 h. To express the recombinant DC domain of ADAM8, the cDNA fragment encoding the A8 DC domain was generated by PCR using Platinum™ Pfx polymerase (Invitrogen) with the following primers: DCE-A8f, 5′-GGTGGCCCTGTGTGTGGAAAC-3′ (SEQ ID NO:17); DCE-A8r, 5′-TACACAGTTGGGTGGTGCCCA-3′ (SEQ ID NO:18). The resulting cDNA fragment was cloned into the bacterial expression vector pTrcHis2 (Invitrogen) containing a C-terminal Myc and His6 tag. This vector was transformed into E. coli strain TOP10 (Invitrogen). Recombinant protein expression was induced with 1 mM isopropyl-1-thio-D-galactopyranoside for 5 h to overnight. […]
After application of the recombinant protein and blocking with bovine serum albumin for 1 h, 10^5 cells in PBS or medium (with 5% FCS) were seeded onto the plates. […] After 1 h incubation at 37 C, the wells were rinsed 3× with PBS, and the remaining cells were quantified by counting 10 randomly chosen viewing fields (100-fold magnification). […]

[2] = test system: C6 glioma cells overexpressing ADAM8; experiment: Matrigel invasion assay, C6 glioma cells overexpressing ADAM8; format: cell-based, rat
Protocol: as §1, §2

Mice (strain C57BL/6) = experiment: Acute and chronic toxicity study in mice; format: in vivo, mouse
Protocol: To test for acute and for chronic toxicity, we used dosages of 1 μg, 5 μg, and 10 μg per gram of body weight in 100 μl of injection volume. Mice (strain C57BL/6) were either injected once (acute toxicity) or weekly three-times (chronic toxicity) intraperitoneal with the dosages indicated. All mice were analysed in cohorts of n=6, and NaCl injected mice were used as controls. […] We assessed spontaneous behaviour and motor performance of the mice. […] After 4 weeks, mice were sacrificed and representative organs were dissected and assessed histologically by normal hematoxylin/eosin (HE) staining. For each cohort of mice, one representative is documented for brain (cerebellum and cortex), liver, spleen, and kidney in FIG. 13.

ADAM9 = experiment: Specificity test, ADAM catalytic/disintegrin construct, TNF peptide fluorescent substrate; format: biochemical; conditions: maximal concentration 10 μM
Protocol: (§3) The maximal concentration of the inhibitor peptide was 10 μM.
(§4) ADAM catalytic/disintegrin constructs were monitored at 5-min intervals using the indicated fluorescent substrates with excitation and emission wavelengths of 485 and 530 nm, respectively. The substrates were diluted from a 10 mM stock in DMSO to 10 μM in assay buffer containing 20 mM Tris, pH 8.0, and 6×10^−4% Brij-35. For experiments with ADAM8 only, 10 mM CaCl2 was added to the buffer. Reactions were run in a 96-well plate with either inhibitor (10 nM-10 μM) in 1% DMSO or a 1% DMSO control. Background wells contained substrate and 1% DMSO and were subtracted from all other wells. Endpoints were determined in wells containing substrate and an excess of ADAM17 for the TNF-alpha substrate and ADAM8 for the CD23 substrate. Concentrations of ADAM proteins were in the range of 2.0 nM for TACE, 10 nM for ADAM9, 5 nM for ADAM10, 10 nM for ADAM8, and 2 nM for ADAM12.

recombinant ADAM8 = target: T2, recombinant ADAM8 (Mus musculus, UniProt Q05910); experiment: Fluorescence assay of purified recombinant ADAM8 with fluorogenic CD23 peptide substrate; format: biochemical; conditions: for inhibition of ADAM8 proteolytic activity: FIG. 1B, peptides at 100 nM
T2 sequence (Q05910 17-826): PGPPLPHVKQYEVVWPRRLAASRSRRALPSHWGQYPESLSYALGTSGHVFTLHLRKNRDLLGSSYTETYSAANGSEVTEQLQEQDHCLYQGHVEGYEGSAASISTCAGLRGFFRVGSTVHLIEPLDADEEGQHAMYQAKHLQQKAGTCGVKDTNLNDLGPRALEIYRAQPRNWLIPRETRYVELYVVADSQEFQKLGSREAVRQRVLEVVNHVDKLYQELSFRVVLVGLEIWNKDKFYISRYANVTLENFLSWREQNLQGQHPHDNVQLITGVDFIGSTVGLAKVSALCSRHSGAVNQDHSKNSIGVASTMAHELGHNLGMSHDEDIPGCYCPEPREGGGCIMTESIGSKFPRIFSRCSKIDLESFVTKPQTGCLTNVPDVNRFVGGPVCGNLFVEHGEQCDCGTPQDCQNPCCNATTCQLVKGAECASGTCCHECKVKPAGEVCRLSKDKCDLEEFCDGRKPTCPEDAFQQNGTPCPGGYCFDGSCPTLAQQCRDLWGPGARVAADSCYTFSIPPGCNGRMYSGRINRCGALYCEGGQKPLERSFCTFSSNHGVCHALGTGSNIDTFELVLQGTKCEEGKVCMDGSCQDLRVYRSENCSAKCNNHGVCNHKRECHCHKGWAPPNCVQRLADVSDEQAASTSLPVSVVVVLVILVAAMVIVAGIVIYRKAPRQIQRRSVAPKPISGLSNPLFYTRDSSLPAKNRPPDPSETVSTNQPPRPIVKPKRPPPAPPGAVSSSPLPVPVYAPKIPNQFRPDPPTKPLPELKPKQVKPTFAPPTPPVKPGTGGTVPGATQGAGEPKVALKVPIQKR
Protocol: In the following example, the ability of cyclic peptides to inhibit the activity of a recombinant ADAM8 was tested in fluorescence assays using a fluorogenic ADAM8 substrate (Moss and Rasmussen, 2007).
(§5) Activity of purified recombinant ADAM8 was assessed by using a fluorogenic CD23 peptide (Dabcyl-[…](5-FAM)-CONH2, SEQ ID NO:19) as a substrate. 50 ng substrate was incubated with 100 ng of ADAM8 in assay buffer (25 mM TrisHCl pH 7.5, 10 mM CaCl2, 150 mM NaCl) at 37° C. in the time range of 0 to 18 hours. Potential ADAM8 inhibitors were preincubated for 30 min before addition of the substrate. As a negative control, CD23 was incubated with assay buffer. For determination of ADAM10 activity, 100 ng of the recombinant ADAM10 protein (R&D systems) was used in conjunction with the fluorogenic substrate Dabcyl-LAQA(HomoPhe) RSC (Fluorescein)-NH2 (SEQ ID NO:55) in assay buffer (TrisHCl pH 9.0, 2.5 μM ZnCl2). For both assays the final volume in each well was 150 μl. Activity was measured as increase in fluorescence resulting from ADAM8/ADAM10 to cleave the quenched fluorescent substrates (λ excitation: 485 nm; λ emission: 520 nm) using a BMG Optima plate reader fluorometer.

recombinant ADAM10 = target: T3, recombinant ADAM10 (Homo sapiens, UniProt O14672); experiment: Fluorescence assay of recombinant ADAM10 with fluorogenic LAQA peptide substrate; format: biochemical; conditions: FIG. 2, peptides at 100 nM
T3 construct: purchased R&D systems
T3 sequence (O14672 214-748): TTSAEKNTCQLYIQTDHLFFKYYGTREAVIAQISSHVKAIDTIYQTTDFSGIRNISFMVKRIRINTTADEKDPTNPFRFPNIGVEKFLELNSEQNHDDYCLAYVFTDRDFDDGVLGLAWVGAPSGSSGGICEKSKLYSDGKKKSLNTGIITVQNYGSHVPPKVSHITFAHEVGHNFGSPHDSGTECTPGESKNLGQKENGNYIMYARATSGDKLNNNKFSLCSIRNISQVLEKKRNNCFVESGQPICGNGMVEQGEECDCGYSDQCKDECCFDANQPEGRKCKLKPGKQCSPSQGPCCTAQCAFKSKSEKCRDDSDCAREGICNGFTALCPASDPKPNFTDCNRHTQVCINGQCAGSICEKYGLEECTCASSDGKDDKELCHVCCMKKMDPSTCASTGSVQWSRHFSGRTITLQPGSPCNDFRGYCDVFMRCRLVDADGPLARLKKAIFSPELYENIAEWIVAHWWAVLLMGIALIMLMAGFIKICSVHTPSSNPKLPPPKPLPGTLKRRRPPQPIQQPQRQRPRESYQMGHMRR
Protocol: as §5

ADAM12 = experiment: Specificity test, ADAM catalytic/disintegrin construct, LAQA fluorescent substrate; format: biochemical; conditions: maximal concentration 10 μM
Protocol: as §3, §4

ADAM17 (TACE) = experiment: as above; format: biochemical; conditions: maximal concentration 10 μM
Protocol: as §3, §4

ADAM10 = experiment: as above; format: biochemical; conditions: maximal concentration 10 μM
Protocol: as §3, §4

ADAM8 = experiment: Specificity test, ADAM catalytic/disintegrin construct, CD23 fluorescent substrate; format: biochemical; conditions: read-out: ADAM inhibition with P1, IC50, 10 mM CaCl2 in buffer
Protocol: as §3, §4

Compound | ADAM-8 mediated cell invasion [1] | inhibition of cell adhesion mediated by ADAM8 DC domain (ADAM8 DC domain) | tumour cell invasion in ADAM8 expressing cells ([2]; FIG. 4, Example 5, 20 hours) | cell invasion, dose dependence ([2]; FIG. 10, Example 7) | ADAM-8 mediated cell invasion ([2]; FIG. 12, peptide 5 μM) | spontaneous behaviour and motor performance (Mice (strain C57BL/6); 1, 5, 10 μg per gram body weight i.p., once or weekly three-times, 4 weeks) | survival and obvious abnormalities (Mice (strain C57BL/6); 1, 5, 10 μg per gram body weight i.p., once or weekly three-times, 4 weeks observation) | histology (HE staining) of brain, liver, spleen, kidney (Mice (strain C57BL/6); FIG. 13, after 4 weeks) | ADAM inhibition with P1 (ADAM9) | inhibition of ADAM8 proteolytic activity (recombinant ADAM8; CD23 substrate) | concentration dependence of ADAM8 inhibition (recombinant ADAM8; FIG. 1C, 50-200 nM, CD23 substrate) | inhibition of ADAM10 (recombinant ADAM10) | ADAM inhibition with P1 (ADAM12) | ADAM inhibition with P1 (ADAM17 (TACE)) | ADAM inhibition with P1 (ADAM10) | IC50 (ADAM8) | IC50 (recombinant ADAM8; FIG. 1A, CD23 as substrate, read-out: IC50 for the inhibition of ADAM8)
CC(C)C[C@@H]1NC(=O)[C@H](CCCNC(=N)N)NC(=O)[C@H](CCCCN)NC(=O)[C@H](CC(=O)O)NC(=O)[C@H](CCCCN)NC(=O)[C@@H](O)CNC1=O [Peptide P1, c(RLsKDK)] (cyclo(RL[isoSer(2S)]KDK)) | significantly blocked | very potent in the inhibition of cell adhesion | dramatically reduced tumour cell invasion | blocks cell invasion in a dose-dependent manner | significantly blocked | not able to detect any differences in behaviour | all mice were alive and did not show any obvious abnormalities | did not show any evidence of toxicity | No inh. at 10 μM | showed the most marked inhibition | concentration-dependant inhibition | little inhibition | No inh. at 10 μM | No inh. at 10 μM | No inh. at 10 μM | 100 nM | –
CNC(=O)[C@H](Cc1ccccc1)NC(=O)[C@H](CC(C)C)[C@H](CSc1cccs1)C(=O)NO [BB-94, batimastat, reference compound] | – | – | – | – | – | – | – | – | – | – | – | – | – | – | – | – | ~50 nM
H-RLSKDK-OH (not fully specified (bridges)) [Peptide P4] | – | – | – | – | – | – | – | – | – | little effect on ADAM8 activity | – | – | – | – | – | – | –
